Biological target: T1, Catenin beta-1 (Homo sapiens, UniProt P35222)
T1 sequence (P35222 whole entry): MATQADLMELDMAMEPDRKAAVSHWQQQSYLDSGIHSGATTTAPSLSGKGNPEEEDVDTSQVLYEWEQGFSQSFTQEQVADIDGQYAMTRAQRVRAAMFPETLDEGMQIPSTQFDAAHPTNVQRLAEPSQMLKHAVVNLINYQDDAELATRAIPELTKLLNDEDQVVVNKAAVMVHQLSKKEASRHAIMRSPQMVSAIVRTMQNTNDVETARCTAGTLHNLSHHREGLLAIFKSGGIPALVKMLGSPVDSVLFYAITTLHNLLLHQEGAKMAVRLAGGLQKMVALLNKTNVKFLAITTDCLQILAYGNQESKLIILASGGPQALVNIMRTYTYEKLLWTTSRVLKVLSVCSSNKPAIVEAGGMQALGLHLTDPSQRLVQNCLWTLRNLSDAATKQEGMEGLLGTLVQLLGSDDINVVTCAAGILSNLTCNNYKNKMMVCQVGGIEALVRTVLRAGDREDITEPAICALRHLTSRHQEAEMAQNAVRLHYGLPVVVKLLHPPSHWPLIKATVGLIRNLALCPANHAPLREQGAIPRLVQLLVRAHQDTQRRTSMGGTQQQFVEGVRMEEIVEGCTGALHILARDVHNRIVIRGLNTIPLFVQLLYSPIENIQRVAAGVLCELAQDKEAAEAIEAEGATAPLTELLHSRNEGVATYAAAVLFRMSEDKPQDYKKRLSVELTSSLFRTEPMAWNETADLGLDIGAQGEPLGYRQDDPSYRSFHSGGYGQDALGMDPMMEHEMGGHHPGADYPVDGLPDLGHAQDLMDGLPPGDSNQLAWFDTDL
Experiment: Inhibition of GST-tagged Tcf4 binding to human beta-catenin after 2 hrs by ELISA

COc1c(CC(C)OC(=O)c2c(C)cc(O)cc2O)c2c3c(CC(C)OC(=O)c4c(C)cc(O)cc4O)c(OC)c(=O)c4c(O)cc(OC)c(c5c(OC)cc(O)c(c1=O)c52)c43 (centres undefined)
IC50: < 10 µM

CCCC(=O)c1cc2c(c(O)c1C)C(=O)C(=O)c1c(O)cccc1-2
IC50: < 10 µM

COC(=O)c1c(C)cc2c(c1O)[C@]1(O)C(=O)c3cc4c(c(O)c3C(=O)[C@]1(OC)[C@H](O)C2)C(=O)C=C(N[C@@H]1O[C@H](C)[C@@H](OC)[C@H](O)[C@@H]1OC)C4=O
IC50: < 10 µM

COc1c(C[C@@H](C)OC(=O)Oc2ccc(O)cc2)c2c3c(C[C@@H](C)OC(=O)c4ccccc4)c(OC)c(=O)c4c(O)cc(OC)c(c5c(OC)cc(O)c(c1=O)c52)c43 [CALPHOSTIN C]
IC50: < 10 µM

Reference: ChEMBL document CHEMBL2396623, “Direct targeting of β-catenin: Inhibition of protein-protein interactions for the inactivation of Wnt signaling” (Bioorg Med Chem, 2013)
